What was measured:
[1] = system: D4539 (Escherichia coli MTP BioA) containing tobacco plants; assay: Visual herbicide damage score on transgenic tobacco D4539 (pBin TMV MTP EcBioA); format: in vivo; details: 600 gai/ha
Excerpt: (§1) In order to determine if the overexpressed gene detailed in Example 3 confers resistance to BIO3-BIO1 inhibiting compounds when expressed in plants, GM tobacco lines were produced and tested with BIO3-BIO1 inhibiting compounds. Transgenic tobacco plants expressing the Escherichia coli BioA gene with (SEQ ID NO:203) and without a mitochondrial signal peptide (SEQ ID NO: 202).
(§2) Populations of transgenic tobacco comprising 20-30 transgenic events per plant transformation constructs were generated as described in Example 1. These lines were clonally propagated and 1 clone per event was sprayed with 600 g ai/ha compound L or A+0.2% Genapol X080 with a spray volume of 200 L/Ha (“g ai/ha” refers to grams of active compound per hectare).
(§3) […] A score of 0 indicates no visible damage or stunting whereas a score of 100 indicates a complete death of the plant. 20 transgenic events (i.e. individual transgenic plants) from each GM tobacco line were transplanted to soil 1 week prior to spraying with BIO3-BIO1 inhibiting compounds. WT tobacco was included as a control.

[2] = system: D4555 (Escherichia coli BioA) containing tobacco plants; assay: Visual herbicide damage score on transgenic tobacco D4555 (pCMP MTP EcBioA); format: in vivo; details: 600 gai/ha, replicate clones A, B, C of events 8480, 8526
Excerpt: as §1, §2, §3
• D4555 (Escherichia coli BioA) containing tobacco plants; 04602 (Pantoea ananatis BioA) containing tobacco plants; 04603 (Stenotrophomonas maltophilia BioA) containing tobacco plants; 04609 (Chroococcidiopsis sp. CCMEE 29 BioA) containing tobacco plants; 04611 (Bacillus subtilis BioA) containing tobacco plants; 04606 (Streptomyces viridochromogenes BioA) containing tobacco plants; 04607 (Pedobacter hartonius BioA) containing tobacco plants; 04608 (Chitinophaga filiformis BioA) containing tobacco plants; and 04610 (Tenacibaculum adriaticum BioA) containing tobacco plants, are shown in the “TABLES” section below in Tables 16 to 24 respectively.

CCOC(=O)c1nn(-c2ccc3c(c2)OC(F)(F)C(F)(F)O3)c2cccc(C(C)=O)c2c1=O [Compound A, ethyl 5-acetyl-4-oxo-1-(2,2,3,3-tetrafluoro-1,4-benzodioxin-6-yl)cinnoline-3-carboxylate]
7%: percentage of damage (herbicide damage score) ([1]; D4539 event 8414, 7 DAT) | percentage of damage (herbicide damage score) ([1]; D4539 event 8415, 7 DAT)
10%: percentage of damage (herbicide damage score) ([1]; D4539 event 8417, 21 DAT) | percentage of damage (herbicide damage score) ([1]; D4539 event 8418, 14 DAT) | percentage of damage (herbicide damage score) ([1]; D4539 event 8438, 7 DAT) | percentage of damage (herbicide damage score) ([1]; D4539 event 8439, 14 DAT)
75%: percentage of damage (herbicide damage score) ([1]; D4539 event 8438, 14 DAT)
0%: percentage of damage (herbicide damage score) ([1]; D4539 event 8385, 14 DAT) | percentage of damage (herbicide damage score) ([1]; D4539 event 8385, 21 DAT) | percentage of damage (herbicide damage score) ([1]; D4539 event 8386, 14 DAT) | percentage of damage (herbicide damage score) ([1]; D4539 event 8386, 21 DAT) | percentage of damage (herbicide damage score) ([1]; D4539 event 8399, 14 DAT) | percentage of damage (herbicide damage score) ([1]; D4539 event 8399, 21 DAT) | percentage of damage (herbicide damage score) ([1]; D4539 event 8402, 14 DAT) | percentage of damage (herbicide damage score) ([1]; D4539 event 8402, 21 DAT) | percentage of damage (herbicide damage score) ([1]; D4539 event 8415, 14 DAT) | percentage of damage (herbicide damage score) ([1]; D4539 event 8415, 21 DAT) | percentage of damage (herbicide damage score) ([1]; D4539 event 8426, 14 DAT) | percentage of damage (herbicide damage score) ([1]; D4539 event 8426, 21 DAT) | percentage of damage (herbicide damage score) ([1]; D4539 event 8433, 14 DAT) | percentage of damage (herbicide damage score) ([1]; D4539 event 8433, 21 DAT) | percentage of damage (herbicide damage score) ([1]; D4539 event 8439, 21 DAT) | percentage of damage (herbicide damage score) ([1]; D4539 event 8447, 14 DAT) | percentage of damage (herbicide damage score) ([1]; D4539 event 8447, 21 DAT) | percentage of damage (herbicide damage score) ([1]; D4539 event 8448, 14 DAT) | percentage of damage (herbicide damage score) ([1]; D4539 event 8448, 21 DAT) | percentage of damage (herbicide damage score) ([1]; D4539 event 8460, 14 DAT) | percentage of damage (herbicide damage score) ([1]; D4539 event 8460, 21 DAT) | percentage of damage (herbicide damage score) ([1]; D4539 event 8462, 14 DAT) | percentage of damage (herbicide damage score) ([1]; D4539 event 8462, 21 DAT) | percentage of damage ([2]; 7 DAT) | percentage of damage ([2]; 14 DAT) | percentage of damage ([2]; 21 DAT)
4%: percentage of damage (herbicide damage score) ([1]; D4539 event 8418, 7 DAT) | percentage of damage (herbicide damage score) ([1]; D4539 event 8433, 7 DAT) | percentage of damage (herbicide damage score) ([1]; D4539 event 8434, 7 DAT)
20%: percentage of damage (herbicide damage score) ([1]; D4539 event 8418, 21 DAT) | percentage of damage (herbicide damage score) ([1]; D4539 event 8423, 14 DAT)
30%: percentage of damage (herbicide damage score) ([1]; D4539 event 8414, 14 DAT) | percentage of damage (herbicide damage score) ([1]; D4539 event 8423, 21 DAT)
3%: percentage of damage (herbicide damage score) ([1]; D4539 event 8386, 7 DAT) | percentage of damage (herbicide damage score) ([1]; D4539 event 8460, 7 DAT)
5%: percentage of damage (herbicide damage score) ([1]; D4539 event 8385, 7 DAT) | percentage of damage (herbicide damage score) ([1]; D4539 event 8417, 14 DAT) | percentage of damage (herbicide damage score) ([1]; D4539 event 8434, 14 DAT)
80%: percentage of damage (herbicide damage score) ([1]; D4539 event 8424, 14 DAT) | percentage of damage (herbicide damage score) ([1]; D4539 event 8461, 14 DAT)
2%: percentage of damage (herbicide damage score) ([1]; D4539 event 8399, 7 DAT) | percentage of damage (herbicide damage score) ([1]; D4539 event 8402, 7 DAT) | percentage of damage (herbicide damage score) ([1]; D4539 event 8417, 7 DAT) | percentage of damage (herbicide damage score) ([1]; D4539 event 8423, 7 DAT) | percentage of damage (herbicide damage score) ([1]; D4539 event 8426, 7 DAT) | percentage of damage (herbicide damage score) ([1]; D4539 event 8439, 7 DAT) | percentage of damage (herbicide damage score) ([1]; D4539 event 8447, 7 DAT) | percentage of damage (herbicide damage score) ([1]; D4539 event 8448, 7 DAT) | percentage of damage (herbicide damage score) ([1]; D4539 event 8462, 7 DAT)
35%: percentage of damage (herbicide damage score) ([1]; D4539 event 8414, 21 DAT)
15%: percentage of damage (herbicide damage score) ([1]; D4539 event 8434, 21 DAT) | percentage of damage (herbicide damage score) ([1]; D4539 event 8461, 7 DAT)
55%: percentage of damage (herbicide damage score) ([1]; D4539 event 8424, 7 DAT)
85%: percentage of damage (herbicide damage score) ([1]; D4539 event 8424, 21 DAT) | percentage of damage (herbicide damage score) ([1]; D4539 event 8461, 21 DAT)
65%: percentage of damage (herbicide damage score) ([1]; D4539 event 8438, 21 DAT)

CCn1c(Cn2ccc(C(F)(F)F)n2)cc(=O)c(C(=O)O)c1-c1ccc(Cl)c(Cl)c1 [Compound L, 2-(3,4-dichlorophenyl)-1-ethyl-4-oxo-6-[[3-(trifluoromethyl)pyrazol-1-yl]methyl]pyridine-3-carboxylic acid]
7%: percentage of damage (herbicide damage score) ([1]; D4539 event 8386, 7 DAT) | percentage of damage (herbicide damage score) ([1]; D4539 event 8415, 7 DAT)
20%: percentage of damage (herbicide damage score) ([1]; D4539 event 8417, 21 DAT)
15%: percentage of damage (herbicide damage score) ([1]; D4539 event 8438, 7 DAT)
5%: percentage of damage (herbicide damage score) ([1]; D4539 event 8433, 7 DAT)
75%: percentage of damage (herbicide damage score) ([1]; D4539 event 8461, 14 DAT)
60%: percentage of damage (herbicide damage score) ([1]; D4539 event 8418, 21 DAT)
95%: percentage of damage (herbicide damage score) ([1]; D4539 event 8438, 21 DAT)
17%: percentage of damage (herbicide damage score) ([1]; D4539 event 8461, 7 DAT)
2%: percentage of damage (herbicide damage score) ([1]; D4539 event 8399, 7 DAT) | percentage of damage (herbicide damage score) ([1]; D4539 event 8414, 7 DAT) | percentage of damage (herbicide damage score) ([1]; D4539 event 8417, 7 DAT) | percentage of damage (herbicide damage score) ([1]; D4539 event 8423, 7 DAT) | percentage of damage (herbicide damage score) ([1]; D4539 event 8426, 7 DAT) | percentage of damage (herbicide damage score) ([1]; D4539 event 8434, 7 DAT) | percentage of damage (herbicide damage score) ([1]; D4539 event 8439, 7 DAT) | percentage of damage (herbicide damage score) ([1]; D4539 event 8447, 7 DAT) | percentage of damage (herbicide damage score) ([1]; D4539 event 8448, 7 DAT) | percentage of damage (herbicide damage score) ([1]; D4539 event 8460, 7 DAT) | percentage of damage (herbicide damage score) ([1]; D4539 event 8462, 7 DAT)
35%: percentage of damage (herbicide damage score) ([1]; D4539 event 8434, 21 DAT)
0%: percentage of damage (herbicide damage score) ([1]; D4539 event 8385, 14 DAT) | percentage of damage (herbicide damage score) ([1]; D4539 event 8385, 21 DAT) | percentage of damage (herbicide damage score) ([1]; D4539 event 8386, 14 DAT) | percentage of damage (herbicide damage score) ([1]; D4539 event 8386, 21 DAT) | percentage of damage (herbicide damage score) ([1]; D4539 event 8399, 14 DAT) | percentage of damage (herbicide damage score) ([1]; D4539 event 8399, 21 DAT) | percentage of damage (herbicide damage score) ([1]; D4539 event 8402, 14 DAT) | percentage of damage (herbicide damage score) ([1]; D4539 event 8402, 21 DAT) | percentage of damage (herbicide damage score) ([1]; D4539 event 8414, 14 DAT) | percentage of damage (herbicide damage score) ([1]; D4539 event 8414, 21 DAT) | percentage of damage (herbicide damage score) ([1]; D4539 event 8415, 14 DAT) | percentage of damage (herbicide damage score) ([1]; D4539 event 8415, 21 DAT) | percentage of damage (herbicide damage score) ([1]; D4539 event 8417, 14 DAT) | percentage of damage (herbicide damage score) ([1]; D4539 event 8423, 14 DAT) | percentage of damage (herbicide damage score) ([1]; D4539 event 8423, 21 DAT) | percentage of damage (herbicide damage score) ([1]; D4539 event 8426, 14 DAT) | percentage of damage (herbicide damage score) ([1]; D4539 event 8426, 21 DAT) | percentage of damage (herbicide damage score) ([1]; D4539 event 8433, 14 DAT) | percentage of damage (herbicide damage score) ([1]; D4539 event 8433, 21 DAT) | percentage of damage (herbicide damage score) ([1]; D4539 event 8434, 14 DAT) | percentage of damage (herbicide damage score) ([1]; D4539 event 8439, 14 DAT) | percentage of damage (herbicide damage score) ([1]; D4539 event 8439, 21 DAT) | percentage of damage (herbicide damage score) ([1]; D4539 event 8447, 14 DAT) | percentage of damage (herbicide damage score) ([1]; D4539 event 8447, 21 DAT) | percentage of damage (herbicide damage score) ([1]; D4539 event 8448, 14 DAT) | percentage of damage (herbicide damage score) ([1]; D4539 event 8448, 21 DAT) | percentage of damage (herbicide damage score) ([1]; D4539 event 8460, 14 DAT) | percentage of damage (herbicide damage score) ([1]; D4539 event 8460, 21 DAT) | percentage of damage (herbicide damage score) ([1]; D4539 event 8462, 14 DAT) | percentage of damage ([2]; 7 DAT) | percentage of damage ([2]; 14 DAT) | percentage of damage ([2]; 21 DAT)
85%: percentage of damage (herbicide damage score) ([1]; D4539 event 8424, 14 DAT) | percentage of damage (herbicide damage score) ([1]; D4539 event 8438, 14 DAT)
3%: percentage of damage (herbicide damage score) ([1]; D4539 event 8402, 7 DAT) | percentage of damage (herbicide damage score) ([1]; D4539 event 8462, 21 DAT)
25%: percentage of damage (herbicide damage score) ([1]; D4539 event 8418, 14 DAT)
10%: percentage of damage (herbicide damage score) ([1]; D4539 event 8385, 7 DAT) | percentage of damage (herbicide damage score) ([1]; D4539 event 8418, 7 DAT)
90%: percentage of damage (herbicide damage score) ([1]; D4539 event 8424, 21 DAT) | percentage of damage (herbicide damage score) ([1]; D4539 event 8461, 21 DAT)
65%: percentage of damage (herbicide damage score) ([1]; D4539 event 8424, 7 DAT)

Source: US20260226493A1, “HERBICIDE RESISTANT PLANTS” (SYNGENTA CROP PROTECTION AG, priority 2023, published 2026)
